Several values for one entry are separate records, joined by “and”; a condition that tells them apart may be missing. Equal values may be shown once.
How the values were obtained:
mouse NNMT = molecular target: T1, mouse NNMT (Mus musculus, UniProt O55239); assay: Fluorescence based NNMT enzymatic assay (mouse); type: biochemical; conditions: recombinant mouse NNMT, fluorescence of an MNA derivative; read-out: mNNMT IC50
T1 sequence (O55239 1-264): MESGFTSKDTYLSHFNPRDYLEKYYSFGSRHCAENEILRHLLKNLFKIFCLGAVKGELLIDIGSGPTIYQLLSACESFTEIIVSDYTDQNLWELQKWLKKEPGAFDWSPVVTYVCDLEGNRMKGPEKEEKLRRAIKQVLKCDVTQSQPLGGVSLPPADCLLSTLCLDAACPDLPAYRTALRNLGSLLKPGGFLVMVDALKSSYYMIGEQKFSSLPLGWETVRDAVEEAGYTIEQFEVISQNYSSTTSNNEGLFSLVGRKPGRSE
Procedure: (§1) NNMT activity was measured by a fluorescence based assay as previously described. Briefly, Inhibitors were screened using human, mouse and monkey NNMT enzymes at different concentrations. The final assay reaction mixture contained a buffer of 100 mM Tris Hcl pH 7.5, 0.04% BSA, 2 mM Dithiothreitol and 1% DMSO. A fluorescent product 2, 7- naphthyridine was measured in a Tecan reader with excitation at 375 nm and emission at 430 nm. The IC50 values were determined by fitting the inhibition curves (percent inhibition versus inhibitor concentration) using a four parametric sigmoidal dose response in graph pad prism.

[1] = test system: NNMT (endogenous MNA levels); assay: Determination of MNA in cells (Target engagement); type: cell-based, human; conditions: maximal MNA reduction relative to control without compound
Procedure: (§2) As next steps, cellular assays using the human U2OS cell line were carried out. This assay, described in[6], measures inhibition of endogenous NNMT, without recombinant expression, by quantification of MNA via LC–MS/MS. […] EC50 values were higher by a factor of ~ 30 compared to IC50 values on the isolated recombinant hNNMT, probably reflecting low cell membrane permeability.

hNNMT [2] = molecular target: T2, hNNMT (Homo sapiens, UniProt P40261); assay: Fluorescence based NNMT enzymatic assay (human); type: biochemical; conditions: recombinant human NNMT, fluorescence of an MNA derivative; for IC50: read-out: hNNMT IC50
T2 sequence (P40261 1-264): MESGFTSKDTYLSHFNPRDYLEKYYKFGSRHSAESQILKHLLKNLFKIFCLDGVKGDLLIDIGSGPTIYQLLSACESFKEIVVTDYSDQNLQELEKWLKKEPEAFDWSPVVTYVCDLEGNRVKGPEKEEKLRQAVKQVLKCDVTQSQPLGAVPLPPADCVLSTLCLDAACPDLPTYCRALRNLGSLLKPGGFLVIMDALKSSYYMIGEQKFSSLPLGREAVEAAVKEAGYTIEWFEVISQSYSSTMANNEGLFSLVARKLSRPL
Procedure: as §1

[3] = molecular target: T3, endogenous NNMT in U2OS cells (Homo sapiens, UniProt P40261); assay: Cell based U2OS assay (endogenous NNMT, MNA by LC–MS/MS); conditions: 24 h treatment; for EC50: read-out: Cell based inhibition in U2OS EC50
T3 construct: endogenous in cells; host or cells: U2OS (human bone osteosarcoma)
T3 sequence (P40261 1-264): T2 sequence (P40261 1-264)
Procedure: as §2
The cell based assay with Human bone osteosarcoma (U2OS) cell line was performed using procedures described before (6). Briefly, the cells were seeded into a 96 well cell culture plate followed by incubation for 24 h at 37 °C, 5% CO2, and 95% humidity. Cell culture media was replaced with 100 µl of medium/ inhibitor mixture at different concentrations and incubated for another 24 h. The cells were processed and […] of supernatant was transferred into 96 well plate (Costar 3364) and analyzed by LC–MS/MS. The IC50 values were determined by fitting the inhibition curves (percent inhibition versus inhibitor concentration) using a four parametric sigmoidal dose response graph pad prism.

hNNMT [4] = molecular target: T2, hNNMT; assay: Thermal shift assay; conditions: for shift in melting temperature (Tm) in presence of SAM / shift in melting temperature (Tm) in presence of SAH: hNNMT; for shift in melting temperature (Tm) in presence of SAM: 5 uM SAM, 10 uM compound; for shift in melting temperature (Tm) in presence of SAH: enzyme:SAH:compound ~ 1:5:10 (1 uM protein, 5 uM SAH, 10 uM compound)
Procedure: Thermal shift assay was performed to assess the binding of tricyclic compounds [(6) = JBSNF-000028, (8) = JBSNF-000107] to hNNMT prior to co-crystallization studies.

NNMT = conditions: published NNMT inhibitor; cited from earlier work

| Structure (SMILES) | IC50 (mouse NNMT) [nM] | IC50 (hNNMT [2]) | further results |
| --- | --- | --- | --- |
| CN1Cc2c(F)c(F)cc3c2N(CCC3)C1=N [Compound (3)] | 1200 ± 750 | 200 nM and 190 nM | % MNA reduction [1]: 14%; EC50 [3]: > 3000 nM |
| CN1Cc2cccc3cccc(c23)C1=N [(24)] | – | > 10000 nM | – |
| CN1Cc2cccc3c2N(CCCC3)C1=N [Compound (5)] | – | > 30000 nM | – |
| CN1Cc2cccc3c2N(CCN3C)C1=N [Compound (16)] | – | > 30000 nM | – |
| CN1Cc2cccc3c2N(CCO3)C1=N [Compound (12)] | 380 ± 20 | 180 ± 20 nM | – |
| CN1CCc2cccc3c2N(CC3)C1=N [Compound (27)] | – | > 3000 nM | – |
| CN1Cc2cc(F)cc3c2N(CCN3C)C1=N [Compound (20)] | – | > 3000 nM | – |
| Br.CN1Cc2cc(F)cc3c2N(CCO3)C1=N [Compound (18)] | > 3000 | 69 ± 36 nM | % MNA reduction [1]: 30%; EC50 [3]: 2500 ± 200 nM |
| CCn1c(=N)n2c3c(cccc31)CCC2 [B] | – | 180 nM | – |
| CN(C)C(=O)N1CCN2C(=N)N(C)Cc3cccc1c32 [Compound (17)] | – | > 30000 nM | – |
| CN1Cc2cccc3c2N(CC3)C1=O [(7), 2-methyl-1,2,5,6-tetrahydro-3H-pyrrolo[3,2,1-ij]quinazolin-3-one] | – | – | hNNMT IC50 (hNNMT [2]): inactive |
| Br.N=C1N(CCCc2ccccc2F)Cc2cccc3c2N1CCO3 [Compound (22)] | – | > 30000 nM | hNNMT IC50 (hNNMT [2]): inactive |
| CN1Cc2cc(F)cc3c2N(CC3)C1=N [Compound (8)] | 1100 ± 500 | 38 nM and 39 nM | % MNA reduction [1]: 30%; Tm in presence of SAH (hNNMT [4]; hNNMT 1 uM, SAH 5 uM, compound 10 uM, protein with SAH alone Tm=39°C): 50 °C; Tm in presence of SAM (hNNMT [4]; hNNMT 1 uM, SAM 5 uM, compound 10 uM, protein with SAM alone Tm=38°C): 41 °C; shift in melting temperature (Tm) in presence of SAM (hNNMT [4]; listed as JBSFN-107): up to 3 °C; shift in melting temperature (Tm) in presence of SAM (hNNMT [4]; listed as JBSNF-000107): ~ 3 °C; shift in melting temperature (Tm) in presence of SAH (hNNMT [4]; listed as JBSFN-107): up to 11 °C; shift in melting temperature (Tm) in presence of SAH (hNNMT [4]; listed as JBSNF-000107): ~ 10 °C; EC50 [3]: 1100 ± 200 nM |
| CN1Cc2cc(F)cc3c2N(CCC3)C1=N [Compound (2)] | 330 ± 130 | 59 ± 4 nM | % MNA reduction [1]: 21%; Cell based inhibition in U2OS EC50 [3]: active; EC50 [3]: 2200 ± 100 nM |
| N=c1sc2cccc3c2n1CCC3 [A] | – | 1600 nM | – |
| CC(=O)N1CCN2C(=N)N(C)Cc3cccc1c32 [Compound (15)] | – | > 30000 nM | – |
| CN1Cc2cccc3ccn(c23)C1=N [Compound (23)] | – | > 30000 nM | – |
| Br.CN1Cc2c(F)c(F)cc3c2N(CC3)C1=N [Compound (9), 8,9-difluoro-2-methyl-1,2,5,6-tetrahydro-3H-pyrrolo[3,2,1-ij]quinazolin-3-imine hydrobromide] | > 3000 | 490 ± 40 nM | % MNA reduction [1]: 43%; EC50 [3]: > 3000 nM |
| CN1Cc2c3c(nn2C)CCCN3C1=N [Compound (25)] | – | > 30000 nM | – |
| CNc1ccc(C(N)=O)cn1 [Compound 28, 6-methylaminonicotinamide] | – | – | IC50 (NNMT): 590 nM |
| CN1Cc2cccc3c2N(CCS3)C1=N [Compound (13)] | 200 ± 20 | 860 ± 60 nM | % MNA reduction [1]: 40%; EC50 [3]: > 10000 nM |
| Br.N=C1N(CC(F)(F)F)Cc2cc(F)cc3c2N1CCO3 [Compound (21)] | – | > 30000 nM | hNNMT IC50 (hNNMT [2]): inactive |
| CN1Cc2cncc3c2N(CCC3)C1=N [Compound (4)] | 770 ± 40 | 360 ± 100 nM | – |
| CN1Cc2cccc3c2N(CCC3)C1=N [Compound (1)] | 180 ± 10 | 130 ± 80 nM | % MNA reduction [1]: 30%; Cell based inhibition in U2OS EC50 [3]: active; EC50 [3]: 2500 ± 300 nM |
| CN1Cc2ccc(F)c3c2N(CC3)C1=N [Compound (11)] | – | > 1000 nM | – |
| CN1Cc2cccc3c2N(CCN3C#N)C1=N [Compound (14)] | 720 ± 70 | 250 ± 70 nM | – |
| CN1Cc2nn(C)c3c2N(CCC3)C1=N [Compound (26)] | – | > 30000 nM | – |

From publication PMC9474883, “Novel tricyclic small molecule inhibitors of Nicotinamide N-methyltransferase for the treatment of metabolic disorders” (Scientific Reports, 2022)
